# Columns and labels:
# Experiment in all cases: relative viability (nuclei count vs DMSO), 5 days (fraction); higher = more cells survive
# Ibrutinib + Palbociclib = compound: C=CC(=O)N1CCC[C@@H](n2nc(-c3ccc(Oc4ccccc4)cc3)c3c(N)ncnc32)C1 [Ibrutinib] + CC(=O)c1c(C)c2cnc(Nc3ccc(N4CCNCC4)cn3)nc2n(C2CCCC2)c1=O [Palbociclib] (partner 0.5 µM)
# How it was run: (§1)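 Nuclei were stained with Hoechst during a one-step fixation (final 0.05% Triton X-100, 1% formaldehyde, 1 ug/ml Hoechst) carried out 5 days after dosing, then counted on 4× images. The cells, lung cancer lines in 1536-well plates, had been dosed by pin tool the day after seeding with one drug alone or a fixed anchor-drug dose plus five library-drug doses (not always all listed) in √10 steps. Relative viability is the nuclei count in treated wells divided by that in vehicle wells, and each value is the median of duplicate plates.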
# BMX-IN-1 + Palbociclib = compound: C=CC(=O)Nc1cc(-n2c(=O)ccc3cnc4ccc(-c5ccc(NS(C)(=O)=O)cc5)cc4c32)ccc1C [BMX-IN-1] + CC(=O)c1c(C)c2cnc(Nc3ccc(N4CCNCC4)cn3)nc2n(C2CCCC2)c1=O [Palbociclib] (partner 0.5 µM)
# How it was run: as §1
# Ibrutinib + AZD7762 = compound: C=CC(=O)N1CCC[C@@H](n2nc(-c3ccc(Oc4ccccc4)cc3)c3c(N)ncnc32)C1 [Ibrutinib] + NC(=O)Nc1cc(-c2cccc(F)c2)sc1C(=O)N[C@H]1CCCNC1 [AZD7762] (partner 0.2 µM)
# How it was run: as §1
# BMX-IN-1 + Tozasertib = compound: C=CC(=O)Nc1cc(-n2c(=O)ccc3cnc4ccc(-c5ccc(NS(C)(=O)=O)cc5)cc4c32)ccc1C [BMX-IN-1] + Cc1cc(Nc2cc(N3CCN(C)CC3)nc(Sc3ccc(NC(=O)C4CC4)cc3)n2)n[nH]1 [Tozasertib] (partner 0.1 µM)
# How it was run: as §1
Cell Line,relative viability (Ibrutinib + Palbociclib; first compound 0.005 µM),relative viability (Ibrutinib + Palbociclib; first compound 0.01581 µM),relative viability (Ibrutinib + Palbociclib; first compound 0.5 µM),relative viability (BMX-IN-1 + Palbociclib; first compound 0.02 µM),relative viability (BMX-IN-1 + Palbociclib; first compound 0.2 µM),relative viability (BMX-IN-1 + Palbociclib; first compound 0.6325 µM),relative viability (BMX-IN-1 + Palbociclib; first compound 2 µM),relative viability (Ibrutinib + AZD7762; first compound 0.005 µM),relative viability (Ibrutinib + AZD7762; first compound 0.01581 µM),relative viability (Ibrutinib + AZD7762; first compound 0.5 µM),relative viability (BMX-IN-1 + Tozasertib; first compound 0.02 µM),relative viability (BMX-IN-1 + Tozasertib; first compound 0.2 µM),relative viability (BMX-IN-1 + Tozasertib; first compound 0.6325 µM),relative viability (BMX-IN-1 + Tozasertib; first compound 2 µM),relative viability (Ibrutinib + Palbociclib; first compound 0.05 µM),relative viability (Ibrutinib + Palbociclib; first compound 0.1581 µM),relative viability (Ibrutinib + AZD7762; first compound 0.05 µM),relative viability (Ibrutinib + AZD7762; first compound 0.1581 µM)
NCI-H2405,0.49,0.514,0.525,0.574,0.585,0.584,0.542,0.778,0.65,0.829,0.808,0.76,0.861,0.747,,,,
NCI-H1734,0.374,0.332,0.357,0.37,0.375,0.386,0.329,0.481,0.518,0.526,0.292,0.285,0.256,0.229,0.384,0.346,0.449,0.557
NCI-H2087,0.243,0.217,,0.214,0.229,0.252,0.257,1.77,1.19,1.21,0.244,0.24,0.344,0.263,0.161,,1.04,
SW 900,0.572,0.437,0.479,0.467,0.676,0.53,0.626,0.472,0.565,0.512,0.425,0.682,0.606,0.679,0.552,0.511,0.597,0.513
NCI-H1793,0.251,0.247,0.243,0.38,0.35,0.285,0.307,0.395,0.33,0.13,0.311,0.285,0.311,0.303,0.238,0.31,0.408,0.85
EKVX,0.304,0.314,0.155,0.424,0.37,0.773,0.416,0.75,0.61,0.246,0.519,0.468,0.445,0.383,0.259,0.269,0.605,0.732
NCI-H2126,0.348,0.322,0.345,0.379,0.345,0.363,0.322,0.776,0.966,0.958,1.03,0.947,0.867,0.829,0.34,0.342,0.962,0.986
NCI-H1993,0.388,0.56,0.466,0.706,0.683,0.646,0.55,0.39,0.732,0.557,0.624,0.652,0.585,0.498,1.64,0.714,0.739,0.751
EPLC-272H,,0.282,0.272,0.323,0.324,0.323,0.317,,0.232,0.191,0.218,0.222,0.279,0.245,0.312,0.316,0.269,0.241
LU99A,0.339,0.391,0.391,0.45,0.428,0.421,0.411,0.258,0.357,0.288,0.275,0.294,0.275,0.293,0.41,0.443,0.338,0.438
HCC-78,0.481,0.472,0.414,0.447,0.464,0.492,0.549,,0.732,0.592,0.472,0.474,0.52,0.36,0.507,0.42,0.251,0.452
HCC-15,0.788,0.705,0.73,0.844,0.762,0.84,0.802,1.33,1.25,1.4,0.449,0.53,0.531,0.398,0.742,0.706,1.19,1.25
201T,0.225,0.327,0.36,0.392,0.391,0.42,0.348,0.539,0.583,0.553,1.17,0.997,0.953,0.896,0.377,0.378,0.623,0.66
LCLC-103H,0.498,0.506,0.469,0.475,0.532,0.479,0.412,0.829,0.706,0.745,0.605,0.494,0.559,0.485,0.528,0.481,0.733,0.835
RERF-LC-KJ,1.12,0.915,0.931,1.15,1.11,1.18,1.16,0.464,0.943,0.714,0.566,0.642,0.472,0.435,0.928,1.09,0.845,0.896
NCI-H1650,0.382,0.305,0.243,0.307,0.313,0.32,0.333,,,,0.374,0.503,0.364,0.41,0.314,0.436,,
NCI-H1355,,0.362,0.295,0.394,0.392,0.399,0.404,,0.768,0.72,0.607,0.664,0.532,0.518,0.359,0.422,0.846,0.9
NCI-H2085,0.467,0.469,0.44,0.473,0.438,0.484,0.46,0.906,0.926,0.729,0.873,0.754,0.794,0.734,0.425,0.47,0.919,0.926

# Source: the supplement of paper PMC10307832
